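Method: 48-hour compound exposure of cells in 96-well plates, five concentrations, linear interpolation of endpoints. Definition used: TGI = concentration required for complete inhibition of growth.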
What was measured:
Assay in all cases: DTP human tumour cell line panel, 48 h
786-0 renal = tested on: 786-0 renal
A549 NSCLC = tested on: A549 NSCLC
BT-549 breast = tested on: BT-549 breast
CCRF-CEM leukemia = tested on: CCRF-CEM leukemia
COLO 205 colon = tested on: COLO 205 colon
EKVX NSCLC = tested on: EKVX NSCLC
HCC-2998 colon = tested on: HCC-2998 colon
HCT-116 colon = tested on: HCT-116 colon
HCT-15 colon = tested on: HCT-15 colon
HL-60(TB) leukemia = tested on: HL-60(TB) leukemia
HOP-62 NSCLC = tested on: HOP-62 NSCLC
HOP-92 NSCLC = tested on: HOP-92 NSCLC
HS 578T breast = tested on: HS 578T breast
HT29 colon = tested on: HT29 colon
IGROV1 ovarian = tested on: IGROV1 ovarian
K-562 leukemia = tested on: K-562 leukemia
KM12 colon = tested on: KM12 colon
M14 melanoma = tested on: M14 melanoma
MALME-3M melanoma = tested on: MALME-3M melanoma
MCF7 breast = tested on: MCF7 breast
MDA-MB-231 breast = tested on: MDA-MB-231 breast
MDA-N = tested on: MDA-N
MOLT-4 leukemia = tested on: MOLT-4 leukemia
NCI-H226 lung = tested on: NCI-H226 lung
NCI-H23 lung = tested on: NCI-H23 lung
OVCAR-5 ovarian = tested on: OVCAR-5 ovarian
OVCAR-8 ovarian = tested on: OVCAR-8 ovarian
PC-3 prostate = tested on: PC-3 prostate
RPMI-8226 leukemia = tested on: RPMI-8226 leukemia
RXF 393 renal = tested on: RXF 393 renal
SK-MEL-2 melanoma = tested on: SK-MEL-2 melanoma
SK-MEL-28 melanoma = tested on: SK-MEL-28 melanoma
SK-MEL-5 melanoma = tested on: SK-MEL-5 melanoma
SN12C renal = tested on: SN12C renal
SNB-19 CNS = tested on: SNB-19 CNS
SNB-75 CNS = tested on: SNB-75 CNS
SR leukemia = tested on: SR leukemia
SW-620 colon = tested on: SW-620 colon
T-47D breast = tested on: T-47D breast
TK-10 renal = tested on: TK-10 renal
U251 CNS = tested on: U251 CNS
UACC-257 melanoma = tested on: UACC-257 melanoma
UACC-62 melanoma = tested on: UACC-62 melanoma
UO-31 renal = tested on: UO-31 renal

Measured: TGI

CC(C)(C)OC(=O)NC(CCCCNC(=O)OCc1ccccc1)C(=O)NC(CCCCNC(=O)OCc1ccccc1)C(=O)ON1C(=O)CCC1=O (centres undefined)
> 100 µM: all assays above

From PubChem BioAssay (NCI)
